Laboratory results as given in US4153684A, “Immunizing and anti-infectious adjuvant agents constituted by N-acetyl-muramyl-L-alanyl-D-glutamic acid derivatives” (priority 1976, dated 1979).
Several values for one entry are separate records, joined by “and”; a condition that tells them apart may be missing. Equal values may be shown once.

Tests used:
Klebsiella pneumoniae = test: Anti-infectious protection, intramuscular inoculation of 10^4 K.pneumoniae; type: in vivo, hybrid mice (C57B1/6×AKR)Fl; settings: for Number of animals surviving on day 3 / Number of animals surviving on day 5 / Number of animals surviving on day 8: mouse, in vivo
anti-albumin antibody = test: Adjuvant character in aqueous phase: anti-albumin antibody by passive hemagglutination (esters); type: in vivo, Swiss mice
Method: In the series of tests of which the results are indicated hereafter, the influence of the active principle according to the invention on the proportion of the anti-albumin antibody has been studied under the following conditions.
Groups of 8 Swiss mice aged two months receive by subcutaneous injection (SC) or orally (PO) 0.5 mg of antigen constituted by the albumin of bovine serum (BSA) with or without the substance tested in an isotonic saline solution. This large dose of antigen, since it is situated at the limit of the paralysing dose with respect to the immunising response, on account of this fact has a weak response or no response to the antigen alone in the case of the controls; it therefore constitutes a severe criterion for showing the activity of an adjuvant substance. Thirty days later, the mice receive, by the same method of administration, a further dose containing 0.1 mg of the same antigen.
The proportion of antibody is determined by passive hemagglutination by using the red blood corpuscles of sheep treated with formalin and recovered from the antigen studied according to the method described by A. A. Hirata and M. W. Brandiss (J. Immunol., 100, 641-648, 1968). The taking of the blood occurred 14, 28, 34 and 36 days after the first injection.
By way of comparison, mice receive, instead of the product according to the invention, either lipopolysaccharides (LPS) (extract of S.Enteritidis by the water-phenol method), or the adjuvant denoted by the name "WSA" and described by Adam et al. [Infect. Immun. (1973) 7, 855-861]. The control mice only receive the antigen.
The proportions of antibody express the maximum serum dilution which agglutinates a given quantity of red blood corpuscles of sheep.

[1] = tested on: antibody specific to the ovalbumin; test: Adjuvant character in oily phase: serum antibody specific to ovalbumin (esters); type: in vivo, Hartley guinea-pigs; settings: 100μg in FIA emulsion; for Serum antibody Precipitation: intradermal, 21 days; for Serum antibody Agglutination: passive hemagglutination
[2] = tested on: retarded hypersensitivity to ovalbumin; test: Retarded hypersensitivity cutaneous test to ovalbumin (esters); type: in vivo, Hartley guinea-pigs; settings: 100μg in FIA emulsion, challenge day 18, read 48 hours after
Method: The tests are effected on batches of 6 Hartley guinea-pigs, females, of 350 g. The administration is made by intradermal injection in the planter pad of each of the hind feet. […] The compound according to the invention is administered at the rate of 0.1 mg contained in the emulsion containing the FIA.
Eighteen days after this immunisation, one looks for possible reactions of retarded hypersensitivity in the antigen on injecting indradermally 0.01 mg or 5 μg of ovalbumin on the side of the animals, and 48 hours after, the reaction at the point of injection is observed. The diameter in mm of the reaction thus caused is measured.

anti-albumin antibodies [3] = test: Adjuvant character in aqueous phase, 0.5 mg BSA (Ser series); type: in vivo, Swiss mice
Method: In the series of tests of which the results are indicated hereafter, the influence of the active principle according to the invention on the strength of the anti-albumin antibodies has been studied under the following conditions.
(§1) Groups of 8 Swiss mice aged two months receive, by subcutaneous injection, 0.5 mg of antigen constituted by the albumin of bovine serum (BSA) and 0.1 mg of the tested substance in an isotonic saline solution. This high dose of antigen, since it is situated at the limit of the paralysing dose with respect to the immunising response, therefore carries with it a weak response or no response to the antigen alone in the tests; it then constitutes a severe criterion for showing the activity of an adjuvant substance. Thirty days later, the mice receive a further dose containing 0.1 mg of the same antigen.
(§2) The strength of the antibody is determined by passive hemagglutination by using the red blood corpuscles of sheep treated with formalin and recovered from the antigen studied by the method described by A. A. Hirata and M. W. Brandiss (J. Immunol., 100, 641-648, 1968). The taking of the blood occurred 14, 28, 34 and 36 days after the first injection.
(§3) By way of comparison, the mice receive, instead of the Mur-NAc-L-Ser-D-iso-Gln, either lipopolysaccharides (LPS) (extract of S. Enteritidis by the water-phenol method), or the adjuvant denoted by the name "WSA" and described by Adam et al. [Infect. Immun. (1973) 7, 855-861]. The control mice only received the antigen.

mice = test: LD50 by intravenous injection on mice, Mur-NAc-L-Ser-D-iso-Gln; type: in vivo; settings: mice aged two months
Method: By progressively increasing the doses administered, that for which the mortality of the mice of a single batch is established at 50% (LD50) is determined.

anti-albumin antibodies [4] = test: Adjuvant character in aqueous phase, first antigen dose 0.05 mg BSA, PA and ABC (Ser series); type: in vivo, Swiss mice; settings: 100 μg, first BSA dose 0.05 mg
Method: as §1, §2, §3
These tests were carried out again with limitation of the dose of antigen in the first injection to 0.05 mg, the other conditions being the same. This weaker dose of antigen gives by itself a positive response with the controls which have received the antigen without adjuvant. It thus allows to be shown a substance which inhibits the response of immunising the disorder. Moreover, an adjuvant substance, under these conditions, always increases the strength of antibody with respect to that of the controls.
In these tests, the determination of the strength of antibody has been effected simultaneously by passive hemagglutination (PA) and by the method of fixation of the antigen by the serum (ABC), such as described by P. Minden and S. Parr (Handbook of Exp. Immunol., P. 463, D. M. Weir ed. Blackwell Scient. Pub. Oxford and Edinburgh, 1967).

K. pneumoniae = tested on: K. pneumoniae; design: species or system mice; settings: mouse, in vivo, iv
antibody to ovalbumin = test: Adjuvant character in oily phase: proportion of antibody to ovalbumin (NHCH3 series); type: in vivo, Hartley guinea-pigs; settings: 500 μg ovalbumin, 100 μg in FIA emulsion, 21 days
Method: As for the preceding tests, one follows the increase of the proportion of antibody caused by the injection of antigen and of the compound of the invention, but, in the present case, the injection contains an oily phase constituted by Freund's incomplete adjuvant (in water-in-oil emulsion).
For these tests, Hartley guinea-pigs of 350 g were used. The control animals receive, in each of the hind feet 0.1 ml of emulsion, either of FIA, or of FCA (Freund's complete adjuvant) containing 500 μg of ovalbumin (antigen). The test product is administered at the rate of 100 μg, in an emulsion of FIA.
21 days after the injection, the proportion of antibody is determined by passive hemagglutatination (PHA), as previously, and by precipitation by the method of Folin.

anti-albumin antibodies [5] = test: Adjuvant character in aqueous solution: anti-albumin antibodies by passive hemagglutination (NHCH3 series); type: in vivo, Swiss mice
Method: Groups of 8 Swiss mice aged two months receive, by subcutaneous injection, 0.5 mg of antigen constituted by the albumin of bovine serum (BSA) and 0.1 mg of the substance tested in an isotonic saline solution. […] Thirty days later, the mice receive a further dose containing 0.1 mg of the same antigen.
The strength of antibody is determined by passive hemagglutination, by using the red blood corpuscles of sheep treated for formalin and recovered from the antigen studied by the method described by A. A. Hirata and M. W. Brandiss (J. Immunol., 100, 641-648, 1968). The taking of the blood took place 14, 28, 34 and 36 days after the first injection.

[6] = I.V. 100 μg, 24 hours before the infection
[7] = 100μg S.C. with BSA 0.5 mg in isotonic saline, maximum serum dilution agglutinating
[8] = 100μg S.C. with BSA 0.5 mg, further 0.1 mg BSA at 30 days
[9] = 100μg S.C. with BSA 0.5 mg in isotonic saline
[10] = I.V. 100 μg, 1 hour after the infection
[11] = per os 2000 μg, 24 hours before the infection
[12] = iv, listed as Mur-NAc-L-Ala-D-Glu-(OCH3)2

Compound	% of protection (Klebsiella pneumoniae; [6]) [%]	Number of animals surviving on day 3 (Klebsiella pneumoniae; iv)	Number of animals surviving on day 5 (Klebsiella pneumoniae; iv)	Number of animals surviving on day 8 (Klebsiella pneumoniae; iv)	Proportion of antibody 28th day (anti-albumin antibody; 100μg S.C. with BSA 0.5 mg)	Proportion of antibody 14th day (anti-albumin antibody; [7])	Proportion of antibody 34th day (anti-albumin antibody; [8])	Proportion of antibody 36th day (anti-albumin antibody; [8])	Serum antibody Precipitation ([1]; ovalbumin 0.5 mg) [µg/mL]	Serum antibody Agglutination ([1]; ovalbumin 0.5 mg)	Cutaneous test (diameter in mm) ([2]; ovalbumin 0.5 mg) [mm]	% of protection (K. pneumoniae) [%]	Number of animals surviving on day 3 (K. pneumoniae)	Number of animals surviving on day 5 (K. pneumoniae)	Number of animals surviving on day 8 (K. pneumoniae)	% of protection (Klebsiella pneumoniae; [10]) [%]	Number of animals surviving on day 3 (Klebsiella pneumoniae)	Number of animals surviving on day 5 (Klebsiella pneumoniae)	Number of animals surviving on day 8 (Klebsiella pneumoniae)	% of protection (Klebsiella pneumoniae; [11]) [%]	other results
COC(=O)CC[C@@H](NC(=O)[C@H](C)NC(=O)[C@@H](C)OC1C(O)C(CO)OC(O)C1NC(C)=O)C(N)=O (stereo partly drawn) [Mur-NAc-L-Ala-D-iso-Gln(OCH3), 2-(2-acetamido-2-deoxy-3-O-D-glucopyranose)-D-propionyl-L-alanyl-D-isoglutamine methyl ester]	29	21	3	11	12	12	100	800	2100	3000	12										
CC(=O)NC1C(O)OC(CO)C(O)C1OC(C)C(=O)NC(CO)C(=O)NC(CCC(=O)O)C(N)=O [Mur-NAc-L-Ser-D-iso-Gln, 2-(2-acetamido-2-deoxy-3-O-D-glucopyranosyl)-D-propionyl-L-seryl-D-isoglutamine]																					Strength of antibody 28th day (anti-albumin antibodies [3]; 100μg S.C. with BSA 0.5 mg): 25; strength of antibody 14th day (anti-albumin antibodies [3]; [9]): 12; Strength of antibody 36th day (anti-albumin antibodies [3]; [8]): 1600; strength of antibody 34th day (anti-albumin antibodies [3]; [8]): 1600; LD50 (mice): > 1 g per kg; Strength of antibody 28th day ABC (anti-albumin antibodies [4]): < 20; Strength of antibody 28th day PA (anti-albumin antibodies [4]): 3; Strength of antibody 34th day ABC (anti-albumin antibodies [4]): < 20; Strength of antibody 34th day PA (anti-albumin antibodies [4]): 50; Strength of antibody 42nd day PA (anti-albumin antibodies [4]): 260; Strength of antibody 36 day ABC (anti-albumin antibodies [4]): 230; Strength of antibody 36 day PA (anti-albumin antibodies [4]): 800; Strength of antibody 14th day ABC (anti-albumin antibodies [4]; fixation of the antigen by the serum): < 20; Strength of antibody 14th day PA (anti-albumin antibodies [4]; passive hemagglutination): < 3
COC(=O)[C@@H](CCC(=O)O)NC(=O)[C@H](C)NC(=O)[C@@H](C)OC1C(O)C(CO)OC(O)C1NC(C)=O (stereo partly drawn) [Mur-NAc-L-Ala-D-Glu-α-OCH3, 2-(2-acetamido-2-deoxy-3-O-D-glucopyranose)-D-propionyl-L-alanyl-D-glutamic α-methyl ester]	67	24 and 16	24 and 16	23 and 14	12	12	200	400				65	16	16	12	88	11	9	6	40.5	Proportion of antibody 14th day (anti-albumin antibody; 10μg S.C. with BSA 0.5 mg): 6; Proportion of antibody 28th day (anti-albumin antibody; 10μg S.C. with BSA 0.5 mg): 6; Proportion of antibody 34th day (anti-albumin antibody; 10μg S.C. with BSA 0.5 mg): 200; Proportion of antibody 36th day (anti-albumin antibody; 10μg S.C. with BSA 0.5 mg): 400; Proportion of antibody 14th day (anti-albumin antibody; 2000μg P.O. with BSA 0.5 mg): 6; Proportion of antibody 28th day (anti-albumin antibody; 2000μg P.O. with BSA 0.5 mg): 6; Proportion of antibody 34th day (anti-albumin antibody; 2000μg P.O. with BSA 0.5 mg): 50; Proportion of antibody 36th day (anti-albumin antibody; 2000μg P.O. with BSA 0.5 mg): 200; Serum antibody Precipitation ([1]; ovalbumin 1 mg, nitrogen precipitable per ml serum): 2600 µg/mL; Cutaneous test (diameter in mm) ([2]; ovalbumin 1 mg): 6 ± 3 mm
COC(=O)CC[C@@H](NC(=O)[C@H](C)NC(=O)[C@@H](C)OC1C(O)C(CO)OC(O)C1NC(C)=O)C(=O)OC (stereo partly drawn) [Mur-NAc-L-Ala-D-Glu(OCH3)2, 2-(2-acetamido-2-deoxy-3-O-D-glucopyranose)-D-propionyl-L-alanyl-D-glutamic dimethyl ester]	46	8	8	8	50	50	400	800	950	2600	6.2	52.5	15	12	10	88	10	9	8	50	Number of animals surviving on day 3 (Klebsiella pneumoniae; [12]): 21; Number of animals surviving on day 5 (Klebsiella pneumoniae; [12]): 19; Number of animals surviving on day 8 (Klebsiella pneumoniae; [12]): 15
CNC(=O)C(CCC(=O)O)NC(=O)C(C)NC(=O)C(C)OC1C(O)C(CO)OC(O)C1NC(C)=O [Mur-NAc-L-Ala-D-Glu(NHCH3), 2-(2-acetamido-2-deoxy-3-O-D-glucopyranosyl)-D-propionyl-L-alanyl-D-(α-methylamide)-glutamic acid]																					Proportion of antibody Agglutination (antibody to ovalbumin; PHA): 6100; Proportion of antibody Precipitation (antibody to ovalbumin; method of Folin): 5500; strength of antibody 14th day (anti-albumin antibodies [5]; [9]): 6; strength of antibody 34th day (anti-albumin antibodies [5]; [8]): 1600; strength of antibody day (fourth column, 36 days) (anti-albumin antibodies [5]; [8]): 1600
